From ChEMBL document CHEMBL1201862, “PubChem BioAssay data set” (2004)
Activity calls are given as the source filed them.

Columns and labels:
HEK293 = test: Fluorescence-based counterscreen for potentiators or agonists of NPY-Y2: cell-based high-throughput dose response assay to identify inhibitors of cyclic nucleotide gated ion channel (CNGC) activity. In this assay, the parental HEK293 cell line transfected with a cyclic-nucleotide gated ion channel (CNGC)-based cAMP sensor is used to measure inhibition of isoproterenol-induced CNGC activity by test compound.; assay type: functional; conditions: Homo sapiens;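 note: stimulus is 1 µM isoproterenol at EC100 plus PDE inhibitor Ro 20-1724 at 25 µM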
[1] = target: Neuropeptide Y receptor type 2 (Homo sapiens, UniProt P49146); test: Fluorescence-based cell-based high-throughput dose response assay for agonists of NPY-Y2. [Related pubchem assays: 1703 (Screening assay (CNGC inhibitors).), 1359 (Screening assay (NPY-Y2 potentiators or agonists).), 1304 (Screening assay (NPY-Y1 potentiators or agonists).), 1710 (Screening assay (NPY-Y2 agonists).), 1791 (Summary AID.)]; assay type: functional
[2] = microbe, parasite or virus in culture; assay type: functional; conditions: Mycobacterium tuberculosis
[3] = target: Neuropeptide Y receptor type 1 (Homo sapiens, UniProt P25929); test: Fluorescence-based counterscreen for agonists of NPY-Y2: cell-based high-throughput dose response assay for agonists of NPY-Y1.; assay type: functional
NS3 = NS3 (Hepatitis C virus, UniProt A3EZJ3); test: PubChem AID 2173; design: species or system Hepacivirus hominis
[4] = target: Induced myeloid leukemia cell differentiation protein Mcl-1 (Homo sapiens, UniProt Q07820); assay type: functional
[5] = target: T1, Heat shock factor protein 1 (Mus musculus, UniProt P38532); test: enhancement of HSF1-driven luciferase signal – cell-based, NIH3T3, luminescence, dose retest, confirmation (AID 435004); assay type: functional;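 note: stress induced by proteasome inhibitor MG132 added 30 min after compound; luciferase reporter driven by HSF1 response element in NIH3T3 cells; actives raise luminescence as potentiators of the MG132 stress response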
T1 sequence (P38532 whole entry): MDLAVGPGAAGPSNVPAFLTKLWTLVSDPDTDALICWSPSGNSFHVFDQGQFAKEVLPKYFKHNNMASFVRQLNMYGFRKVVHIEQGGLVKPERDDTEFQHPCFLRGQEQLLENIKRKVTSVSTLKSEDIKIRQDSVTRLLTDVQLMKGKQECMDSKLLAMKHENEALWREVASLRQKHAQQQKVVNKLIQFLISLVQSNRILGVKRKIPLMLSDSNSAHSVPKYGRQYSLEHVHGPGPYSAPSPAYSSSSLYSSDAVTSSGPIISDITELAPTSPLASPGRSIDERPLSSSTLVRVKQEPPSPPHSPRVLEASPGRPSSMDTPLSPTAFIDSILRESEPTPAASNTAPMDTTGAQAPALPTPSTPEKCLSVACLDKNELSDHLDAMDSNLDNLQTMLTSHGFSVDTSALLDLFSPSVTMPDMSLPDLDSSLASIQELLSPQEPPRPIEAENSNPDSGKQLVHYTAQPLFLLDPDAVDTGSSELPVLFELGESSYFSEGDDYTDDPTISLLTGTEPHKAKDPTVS

[6] = luciferase reporter signal suppression in cells – H4 neuroglioma cells, luminescence, dose response (AID 1990); assay type: functional, cell-based
HeLa = test: Cytotoxicity counterscreen assay for transcriptional activators of heat shock protein 70 (Hsp70). [Related pubchem assays: 1203, 1252 ]; assay type: functional; conditions: Homo sapiens;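 note: cells exposed to compound for 16 hours before readout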
BJ [7] = test: BJ-TERT fibroblast viability loss – cell-based, RAS-independent, luminescence, dose response (AID 1933); assay type: functional; conditions: Homo sapiens
[8] = Luminescence Cell-Based Dose Response HTS to Identify Inhibitors of 5'UTR Stem-Loop Driven Prion Protein mRNA Translation in H4 Neuroglioblastoma Cells. [Related pubchem assays: 1827 (Project Summary), 1813 (Primary HTS)]; assay type: functional
[9] = alpha-synuclein stem-loop luciferase translation blockers – H4 neuroglioma cells, luminescence, confirmation (AID 1988); assay type: functional, cell-based
BJ [10] = test: cells; assay type: functional, cell-based; conditions: Homo sapiens
[11] = target: G-protein coupled receptor 55 (Homo sapiens, UniProt Q9Y2T6); test: inhibition of LPI-stimulated GPR55 beta-arrestin translocation – imaging, U2OS, beta-arrestin-GFP, LPI agonist, primary screen (AID 2013); assay type: functional;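 note: antagonist potency measured as reduced agonist-driven arrestin aggregation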
BJ [12] = test: BJ-TERT-LT-ST fibroblast viability loss – cell-based, RAS-independent, luminescence, dose response (AID 1935); assay type: functional; conditions: Homo sapiens;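 note: BJ fibroblasts immortalized with TERT plus LT and ST oncogenes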
[13] = DRD fibroblast viability loss – cell-based, non-viral oncogenic, luminescence, dose response (AID 1934); assay type: functional; conditions: Homo sapiens
[14] = target: Heat shock protein HSP 90-alpha (Homo sapiens, UniProt P07900); assay type: functional, organism-based
BJ [15] = test: growth inhibition of engineered Ras-driven BJ cells – cell-based, alamar blue fluorescence, cherrypicked samples, dose response (AID 2631); assay type: functional; conditions: Homo sapiens;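 note: confirmatory dose-response assay in RAS-dependent BJ fibroblasts engineered with TERT, LT and ST, with cytotoxicity read by fluorescence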

Sequence of Neuropeptide Y receptor type 1 (P25929 whole entry): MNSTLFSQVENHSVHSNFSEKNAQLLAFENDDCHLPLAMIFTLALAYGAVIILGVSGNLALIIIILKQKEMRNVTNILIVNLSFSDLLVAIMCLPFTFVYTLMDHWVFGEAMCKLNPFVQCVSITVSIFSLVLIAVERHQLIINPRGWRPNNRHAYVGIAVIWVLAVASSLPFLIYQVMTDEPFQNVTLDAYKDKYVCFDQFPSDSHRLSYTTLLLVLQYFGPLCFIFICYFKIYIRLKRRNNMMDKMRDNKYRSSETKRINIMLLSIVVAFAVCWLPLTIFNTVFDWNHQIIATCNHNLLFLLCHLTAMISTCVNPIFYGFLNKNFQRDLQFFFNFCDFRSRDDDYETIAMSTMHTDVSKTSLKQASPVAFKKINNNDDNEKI
Sequence of Neuropeptide Y receptor type 2 (P49146 whole entry): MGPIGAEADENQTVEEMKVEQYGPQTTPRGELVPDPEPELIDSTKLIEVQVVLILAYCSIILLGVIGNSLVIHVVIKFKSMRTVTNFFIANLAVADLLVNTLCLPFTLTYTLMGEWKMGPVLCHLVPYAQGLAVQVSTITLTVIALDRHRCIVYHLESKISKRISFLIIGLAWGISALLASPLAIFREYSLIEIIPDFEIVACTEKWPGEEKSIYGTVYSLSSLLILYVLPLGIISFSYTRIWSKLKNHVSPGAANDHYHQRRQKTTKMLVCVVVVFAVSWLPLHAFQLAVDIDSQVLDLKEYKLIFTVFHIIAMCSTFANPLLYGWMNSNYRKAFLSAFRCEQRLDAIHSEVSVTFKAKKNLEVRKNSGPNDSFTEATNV
Sequence of Induced myeloid leukemia cell differentiation protein Mcl-1 (Q07820 whole entry): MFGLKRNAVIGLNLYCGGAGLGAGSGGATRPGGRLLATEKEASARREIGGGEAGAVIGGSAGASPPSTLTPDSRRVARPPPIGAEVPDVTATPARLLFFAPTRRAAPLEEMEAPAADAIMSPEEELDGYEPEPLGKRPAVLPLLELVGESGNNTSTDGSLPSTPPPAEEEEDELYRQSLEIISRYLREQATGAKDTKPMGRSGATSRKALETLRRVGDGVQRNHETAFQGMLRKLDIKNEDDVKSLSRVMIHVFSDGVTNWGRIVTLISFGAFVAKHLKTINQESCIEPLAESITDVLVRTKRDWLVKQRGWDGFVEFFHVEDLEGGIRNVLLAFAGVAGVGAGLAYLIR
Sequence of G-protein coupled receptor 55 (Q9Y2T6 whole entry): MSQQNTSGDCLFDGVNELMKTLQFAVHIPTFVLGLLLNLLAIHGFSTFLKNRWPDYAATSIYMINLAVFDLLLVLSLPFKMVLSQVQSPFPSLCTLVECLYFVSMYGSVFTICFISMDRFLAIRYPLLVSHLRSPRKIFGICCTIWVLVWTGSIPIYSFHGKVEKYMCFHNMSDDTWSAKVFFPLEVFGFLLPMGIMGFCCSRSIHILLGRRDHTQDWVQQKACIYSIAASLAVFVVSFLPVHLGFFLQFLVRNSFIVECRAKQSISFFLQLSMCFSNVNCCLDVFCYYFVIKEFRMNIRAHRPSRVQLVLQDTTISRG
Sequence of NS3 (A3EZJ3 whole entry): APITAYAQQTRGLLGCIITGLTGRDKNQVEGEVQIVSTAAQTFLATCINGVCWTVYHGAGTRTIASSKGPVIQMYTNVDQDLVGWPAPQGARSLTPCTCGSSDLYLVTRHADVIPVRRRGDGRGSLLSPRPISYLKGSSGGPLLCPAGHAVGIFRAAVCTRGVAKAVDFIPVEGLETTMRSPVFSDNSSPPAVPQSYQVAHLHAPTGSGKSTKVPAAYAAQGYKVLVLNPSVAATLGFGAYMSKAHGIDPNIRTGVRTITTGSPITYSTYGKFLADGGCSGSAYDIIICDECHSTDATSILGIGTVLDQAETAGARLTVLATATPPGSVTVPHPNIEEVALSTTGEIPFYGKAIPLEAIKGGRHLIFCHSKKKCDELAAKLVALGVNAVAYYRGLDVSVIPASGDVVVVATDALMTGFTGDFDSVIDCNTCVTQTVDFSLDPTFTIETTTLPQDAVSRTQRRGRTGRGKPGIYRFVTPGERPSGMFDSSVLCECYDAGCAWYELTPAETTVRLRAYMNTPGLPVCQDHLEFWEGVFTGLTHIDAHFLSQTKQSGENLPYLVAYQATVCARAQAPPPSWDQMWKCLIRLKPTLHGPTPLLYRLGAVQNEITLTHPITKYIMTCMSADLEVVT

For `CCN(CC)S(=O)(=O)c1ccc2ncc(C(=O)NCCC3=CCCCC3)c(O)c2c1`, the EC50 (HEK293) was 10.1 µM (not active), the EC50 [1] was 13.8 µM (not active) and the CC50 [2] was > 40 µM (active). The EC50 [3] was 13.3 µM (not active).
In the case of `COc1ccc(NC2=NC(=O)/C(=C\C=C\c3ccco3)S2)cc1`, the IC50 (NS3) is reported as 25.9 µM (not active), the IC50 [4] is reported as 3.02 µM (active) and the EC50 [5] is reported as > 260 µM (inactive).
For `CCOC(=O)/C(=C\c1cccnc1)C(=O)c1cc(C(C)=O)c(Nc2ccccc2)s1`, the EC50 [6] was > 120 µM (not active), the CC50 (HeLa) was 2.91 µM (active) and the EC50 (BJ [7]) was 2.38 µM (inconclusive). The EC50 [8] was 8.03 µM (active), the EC50 [9] was 8.02 µM (active) and the EC50 (BJ [10]) was 7.78 µM (inconclusive). For the same compound, the IC50 [11] was 3.09 µM (active), the EC50 (BJ [12]) was 6.68 µM (inconclusive) and the EC50 [13] was 2.34 µM (active). For the same compound, the AC50 [14] was 2.18 µM (active) and the EC50 (BJ [15]) was 0.503 µM (active).
